Test results published in patent US12060385B2, “Compounds for RNA capping and uses thereof” (GUANGZHOU HENOVCOM BIOSCIENCE CO., LTD., priority 2022, dated 2024).

These compounds were tested against T7 RNA Polymerase (Escherichia phage T7, UniProt P00573). Conditions: 20 μL transcription system, Cap1 Analog 4 mM, 37° C. 2 to 3 hours.
Format: biochemical
Method: • 1) A plasmid was linearized and the DNA template was purified. • 2) mRNA was synthesized in vitro with 51 types of capping structures of the present disclosure, or without any cap analogues. CleanCap®AG (3′OMe) (Trilink, N-7413) was applied as positive control group, uncapped mRNA was negative control group, and DNAase/RNase-Free water was a blank control group.
The system was incubated for 2 to 3 hours at 37° C. and digested by TURBO DNase for 15 min LiCl was used to precipitate mRNA for at least 30 min, or overnight, mRNA precipitates were then washed with 75% ethanol. After ethanol was quickly volatilized, mRNA was re-solubilized with RNase-Free water. • 3) The transcribed products were purified and the transcription yields were calculated.

T7 RNA Polymerase, sequence (P00573 whole entry): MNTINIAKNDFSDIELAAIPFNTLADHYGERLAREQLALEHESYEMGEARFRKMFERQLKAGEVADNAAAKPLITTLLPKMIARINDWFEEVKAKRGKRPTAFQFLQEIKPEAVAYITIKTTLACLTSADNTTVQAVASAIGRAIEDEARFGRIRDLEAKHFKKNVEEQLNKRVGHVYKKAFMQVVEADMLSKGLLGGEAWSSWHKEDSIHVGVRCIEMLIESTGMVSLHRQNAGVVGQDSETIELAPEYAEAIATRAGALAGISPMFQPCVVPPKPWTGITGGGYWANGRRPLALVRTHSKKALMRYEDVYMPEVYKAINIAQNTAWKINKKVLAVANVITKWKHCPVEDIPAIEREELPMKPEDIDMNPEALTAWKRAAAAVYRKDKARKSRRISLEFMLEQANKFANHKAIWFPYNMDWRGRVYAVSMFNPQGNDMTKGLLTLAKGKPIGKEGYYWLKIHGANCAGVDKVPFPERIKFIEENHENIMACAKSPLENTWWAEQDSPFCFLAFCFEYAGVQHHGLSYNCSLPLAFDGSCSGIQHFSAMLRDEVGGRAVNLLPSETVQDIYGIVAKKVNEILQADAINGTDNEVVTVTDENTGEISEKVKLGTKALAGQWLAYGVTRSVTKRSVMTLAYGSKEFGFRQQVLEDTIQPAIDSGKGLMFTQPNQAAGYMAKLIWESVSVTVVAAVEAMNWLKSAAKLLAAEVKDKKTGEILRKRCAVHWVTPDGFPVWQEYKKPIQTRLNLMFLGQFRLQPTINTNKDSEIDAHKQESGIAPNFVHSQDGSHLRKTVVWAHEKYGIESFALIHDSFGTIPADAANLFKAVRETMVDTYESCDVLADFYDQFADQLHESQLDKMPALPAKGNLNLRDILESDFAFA

| Structure (SMILES) | Final product mass obtained from the 20 μL of mRNA transcription system |
| --- | --- |
| COCC[C@H]1[C@@H](O)[C@H](n2c[n+](C)c3c(=O)[nH]c(N)nc32)O[C@@H]1COP(=O)(O)OP(=O)(O)OP(=O)(O)OC[C@H]1O[C@@H](n2cnc3c(N)ncnc32)[C@H](OC)[C@@H]1OP(=O)([O-])OC[C@H]1O[C@@H](n2cnc3c(=O)[nH]c(N)nc32)[C@H](O)[C@@H]1O [Compound 5] | 95 µg |
| C=CCOC[C@H]1[C@@H](O)[C@H](n2c[n+](C)c3c(=O)[nH]c(N)nc32)O[C@@H]1COP(=O)(O)OP(=O)(O)OP(=O)(O)OC[C@H]1O[C@@H](n2cnc3c(N)ncnc32)[C@H](OC)[C@@H]1OP(=O)(O)OC[C@H]1O[C@@H](n2cnc3c(=O)[nH]c(N)nc32)[C@H](O)[C@@H]1O [Compound 33] | 103 µg |
| C#CCOCC[C@H]1[C@@H](O)[C@H](n2c[n+](C)c3c(=O)[nH]c(N)nc32)O[C@@H]1COP(=O)(O)OP(=O)(O)OP(=O)(O)OC[C@H]1O[C@@H](n2cnc3c(N)ncnc32)[C@H](OC)[C@@H]1OP(=O)(O)OC[C@H]1O[C@@H](n2cnc3c(=O)[nH]c(N)nc32)[C@H](O)[C@@H]1O [Compound 51] | 114 µg |
| COCCNC(=O)C[C@@H]1[C@@H](COP(=O)(O)OP(=O)(O)OP(=O)(O)OC[C@H]2O[C@@H](n3cnc4c(N)ncnc43)[C@H](OC)[C@@H]2OP(=O)([O-])OC[C@H]2O[C@@H](n3cnc4c(=O)[nH]c(N)nc43)[C@H](O)[C@@H]2O)OC(n2c[n+](C)c3c(=O)[nH]c(N)nc32)[C@@H]1O (stereo partly drawn) [Compound 58] | 115 µg |
| COC[C@H]1[C@@H](O)[C@H](n2c[n+](C)c3c(=O)[nH]c(N)nc32)O[C@@H]1COP(=O)(O)OP(=O)(O)OP(=O)(O)OC[C@H]1O[C@@H](n2cnc3c(N)ncnc32)[C@H](OC)[C@@H]1OP(=O)([O-])OC[C@H]1O[C@@H](n2ccc(=O)[nH]c2=O)[C@H](O)[C@@H]1O [Compound 110] | 106 µg |
| CO[C@@H]1[C@H](OP(=O)([O-])OC[C@H]2O[C@@H](n3ccc(=O)[nH]c3=O)[C@H](O)[C@@H]2O)[C@@H](COP(=O)(O)OP(=O)(O)OP(=O)(O)OC[C@H]2OC(n3c[n+](C)c4c(=O)[nH]c(N)nc43)[C@H](O)[C@@H]2CNC(C)=O)O[C@H]1n1cnc2c(N)ncnc21 (stereo partly drawn) [Compound 118] | 86 µg |
| CO[C@@H]1[C@H](OP(=O)(O)OC[C@H]2O[C@@H](n3cnc4c(=O)[nH]c(N)nc43)[C@H](O)[C@@H]2O)[C@@H](COP(=O)(O)OP(=O)(O)OP(=O)(O)OC[C@H]2O[C@@H](n3c[n+](C)c4c(=O)[nH]c(N)nc43)[C@H](O)[C@@H]2CO)O[C@H]1n1cnc2c(N)ncnc21 [Compound 137] | 116 µg |
| CCCCOC[C@H]1[C@@H](O)[C@H](n2c[n+](C)c3c(=O)[nH]c(N)nc32)O[C@@H]1COP(=O)(O)OP(=O)(O)OP(=O)(O)OC[C@H]1O[C@@H](n2cnc3c(N)ncnc32)[C@H](OC)[C@@H]1OP(=O)(O)OC[C@H]1O[C@@H](n2cnc3c(=O)[nH]c(N)nc32)[C@H](O)[C@@H]1O [Compound 151] | 110 µg |
| CO[C@@H]1[C@H](OP(=O)([O-])OC[C@H]2O[C@@H](n3cnc4c(=O)[nH]c(N)nc43)[C@H](O)[C@@H]2O)[C@@H](COP(=O)(O)OP(=O)(O)OP(=O)(O)OC[C@H]2O[C@@H](n3c[n+](C)c4c(=O)[nH]c(N)nc43)[C@H](O)[C@@H]2CCO)O[C@H]1n1cnc2c(N)ncnc21 [Compound 153] | 65 µg |
| CCCOCC[C@H]1[C@@H](O)[C@H](n2c[n+](C)c3c(=O)[nH]c(N)nc32)O[C@@H]1COP(=O)(O)OP(=O)(O)OP(=O)(O)OC[C@H]1O[C@@H](n2cnc3c(N)ncnc32)[C@H](OC)[C@@H]1OP(=O)(O)OC[C@H]1O[C@@H](n2cnc3c(=O)[nH]c(N)nc32)[C@H](O)[C@@H]1O [Compound 163] | 102 µg |
| COC[C@H]1[C@@H](O)[C@H](n2c[n+](C)c3c(=O)[nH]c(N)nc32)O[C@@H]1COP(=O)(O)CP(=O)(O)OP(=O)(O)OC[C@H]1O[C@@H](n2cnc3c(N)ncnc32)[C@H](OC)[C@@H]1OP(=O)(O)OC[C@H]1O[C@@H](n2cnc3c(=O)[nH]c(N)nc32)[C@H](O)[C@@H]1O [Compound 171] | 105 µg |
| COC[C@H]1[C@@H](O)[C@H](n2c[n+](C)c3c(=O)[nH]c(N)nc32)O[C@@H]1COP(=O)(O)OP(=O)(O)OP(=O)(O)OP(=O)(O)OC[C@H]1O[C@@H](n2cnc3c(N)ncnc32)[C@H](OC)[C@@H]1OP(=O)(O)OC[C@H]1O[C@@H](n2cnc3c(=O)[nH]c(N)nc32)[C@H](O)[C@@H]1O [Compound 189] | 92 µg |
| COC[C@@H]1[C@@H](COP(=O)(O)OP(=O)([O-])OP(=O)([O-])OC[C@H]2O[C@@H](n3cnc4c(N)ncnc43)[C@H](OC)[C@@H]2NP(=O)(O)OC[C@H]2O[C@@H](n3cnc4c(=O)[nH]c(N)nc43)[C@H](O)[C@@H]2O)OC(n2c[n+](C)c3c(=O)[nH]c(N)nc32)[C@@H]1O.[Na+] (stereo partly drawn) [Compound 195] | 69 µg |
| CNc1ncnc2c1ncn2[C@@H]1O[C@H](COP(=O)(O)OP(=O)(O)OP(=O)(O)OC[C@H]2O[C@@H](n3c[n+](C)c4c(=O)[nH]c(N)nc43)[C@H](O)[C@@H]2COC)[C@@H](OP(=O)([O-])OC[C@H]2O[C@@H](n3cnc4c(=O)[nH]c(N)nc43)[C@H](O)[C@@H]2O)[C@H]1OC [Compound 197] | 121 µg |
| COC[C@H]1[C@@H](O)[C@H](n2c[n+](C)c3c(=O)[nH]c(N)nc32)O[C@@H]1COP(=O)(O)OP(=O)(O)OP(=O)(O)OC[C@H]1O[C@@H](n2cnc3c(N)ncnc32)[C@H](OC)[C@@H]1OCOC[C@H]1O[C@@H](n2cnc3c(=O)[nH]c(N)nc32)[C@H](O)[C@@H]1O [Compound 199] | 95 µg |
| CCO[C@@H]1[C@H](OP(=O)(O)OC[C@H]2O[C@@H](n3cnc4c(=O)[nH]c(N)nc43)[C@H](O)[C@@H]2O)[C@@H](COP(=O)(O)OP(=O)(O)OP(=O)(O)OCC2O[C@@H](n3c[n+](C)c4c(=O)[nH]c(N)nc43)[C@H](O)[C@@H]2COC)O[C@H]1n1cnc2c(N)ncnc21 (stereo partly drawn) [Compound 203] | 96 µg |
| COC[C@H]1[C@@H](O)[C@H](n2c[n+](Cc3ccccc3)c3c(=O)[nH]c(N)nc32)O[C@@H]1COP(=O)(O)OP(=O)(O)OP(=O)(O)OC[C@H]1O[C@@H](n2cnc3c(N)ncnc32)[C@H](OC)[C@@H]1OP(=O)([O-])OC[C@H]1O[C@@H](n2cnc3c(=O)[nH]c(N)nc32)[C@H](O)[C@@H]1O [Compound 215] | 95 µg |
| COC[C@H]1[C@@H](O)[C@H](n2c[n+](C)c3c(=O)[nH]c(NC(C)C)nc32)O[C@@H]1COP(=O)(O)OP(=O)(O)OP(=O)(O)OC[C@H]1O[C@@H](n2cnc3c(N)ncnc32)[C@H](OC)[C@@H]1OP(=O)([O-])OC[C@H]1O[C@@H](n2cnc3c(=O)[nH]c(N)nc32)[C@H](O)[C@@H]1O [Compound 219] | 101 µg |
| CO[C@@H]1[C@H](OP(=O)([O-])OC[C@H]2O[C@@H](n3cnc4c(=O)[nH]c(N)nc43)[C@H](O)[C@@H]2O)[C@@H](COP(=O)(O)OP(=O)(O)OP(=O)(O)OC[C@H]2O[C@@H](n3c[n+](C)c4c(=O)[nH]c(N)nc43)[C@H](O)[C@@H]2CNC=O)O[C@H]1n1cnc2c(N)ncnc21 [Compound 299] | 105 µg |
| CCCCC(=O)NC[C@H]1[C@@H](O)[C@H](n2c[n+](C)c3c(=O)[nH]c(N)nc32)O[C@@H]1COP(=O)(O)OP(=O)(O)OP(=O)(O)OC[C@H]1O[C@@H](n2cnc3c(N)ncnc32)[C@H](OC)[C@@H]1OP(=O)(O)OC[C@H]1O[C@@H](n2cnc3c(=O)[nH]c(N)nc32)[C@H](O)[C@@H]1O [Compound 305] | 92 µg |
| CO[C@@H]1[C@H](OP(=O)([O-])OC[C@H]2O[C@@H](n3cnc4c(=O)[nH]c(N)nc43)[C@H](O)[C@@H]2O)[C@@H](COP(=O)(O)OP(=O)(O)OP(=O)(O)OC[C@H]2O[C@@H](n3c[n+](C)c4c(=O)[nH]c(N)nc43)[C@H](O)[C@@H]2CNC(=O)c2ccccc2)O[C@H]1n1cnc2c(N)ncnc21 [Compound 309] | 112 µg |
| CO[C@@H]1[C@H](OP(=O)([O-])OC[C@H]2O[C@@H](n3cnc4c(=O)[nH]c(N)nc43)[C@H](O)[C@@H]2O)[C@@H](COP(=O)(O)OP(=O)(O)OP(=O)(O)OC[C@H]2O[C@@H](n3c[n+](C)c4c(=O)[nH]c(N)nc43)[C@H](O)[C@@H]2CNS(C)(=O)=O)O[C@H]1n1cnc2c(N)ncnc21 [Compound 311] | 88 µg |
| CO[C@@H]1[C@H](OP(=O)(O)OC[C@H]2O[C@@H](n3cnc4c(=O)[nH]c(N)nc43)[C@H](O)[C@@H]2O)[C@@H](COP(=O)(O)OP(=O)(O)OP(=O)(O)OC[C@H]2O[C@@H](n3c[n+](C)c4c(=O)[nH]c(N)nc43)[C@H](O)[C@@H]2CCNC(C)=O)O[C@H]1n1cnc2c(N)ncnc21 [Compound 319] | 102 µg |
| COC(=O)NC[C@H]1[C@@H](O)[C@H](n2c[n+](C)c3c(=O)[nH]c(N)nc32)O[C@@H]1COP(=O)(O)OP(=O)(O)OP(=O)(O)OC[C@H]1O[C@@H](n2cnc3c(N)ncnc32)[C@H](OC)[C@@H]1OP(=O)(O)OC[C@H]1O[C@@H](n2cnc3c(=O)[nH]c(N)nc32)[C@H](O)[C@@H]1O [Compound 323] | 114 µg |
